Measured values from patent US20120202876A1, “METHODS OF TREATING DISEASES WITH PROANTHOCYANIDIN OLIGOMERS SUCH AS CROFELEMER” (NAPO PHARMACEUTICALS, INC., priority 2009, published 2012).
pIC50: −log10 of the molar value.

Biological target: T1, human CFTR (Homo sapiens, UniProt P13569)
T1 construct: expressed in transfected cells
Experiment: Apical membrane Cl− current in CFTR-expressing FRT cells
Assay type: cell-based
Settings: for inhibition of CFTR after crofelemer pre-treatment: 50 μM crofelemer added first; for IC50 in absence versus presence of crofelemer: 50 μM crofelemer pre-added
Procedure: CFTR Cl^− current was measured in CFTR-expressing FRT cells in which the basolateral membrane was permeabilized by amphotericin B and a transepithelial Cl^− gradient was applied. Under these conditions, the measured current provides a direct quantitative measure of CFTR Cl^− conductance.
Measurements were done to investigate whether the Crofelemer inhibition potency depended on the CFTR activation mechanism. […] The reversibility of crofelemer inhibition of CFTR was investigated, since washout during secretory diarrhea is a concern in the use of a non-absorbable antisecretory agent. […] Following extensive washing, residual CFTR inhibition was determined from the current after re-stimulation by CPT-cAMP.
Comparisons of CFTR inhibition in the absence and presence of pre-added crofelemer tested the possibility that the site of action of crofelemer on CFTR might overlap with that of the small-molecule thiazolidinone and glycine hydrazide CFTR inhibitors.
FRT cells expressing human TMEM16A (cDNA provided by Dr. Luis Galietta, Gaslini Institute, Genoa, Italy) were generated similarly. FRT cells were cultured in F-12 Modified Coon's Medium (Sigma) supplemented with 10% fetal bovine serum (Hyclone), 2 mM glutamine, 100 units/ml penicillin, 100 μg/ml streptomycin, 350 μg/ml hygromycin and 500 μg/ml geneticin. […] T84 cells were cultured in DMEM/Ham's F-12 (1:1) medium containing 10% FBS, 100 units/ml penicillin and 100 μg/ml streptomycin.
FRT cells (stably expressing CFTR or TMEM16A) were cultured on Snapwell filters until confluence (transepithelial resistance >500 ohm.cm). Short-circuit current was measured in Ussing chambers (Vertical diffusion chamber; Costar) with Ringer's solution bathing the basolateral surface and half-Ringer's bathing the apical surface. Ringer's solution contained: 130 mM NaCl, 2.7 mM KCl, 1.5 mM KH2PO4, 1 mM CaCl2, 0.5 mM MgCl2, 10 mM Na-HEPES, 10 mM glucose, pH 7.3. Half-Ringer's solution was the same, except that 65 mM NaCl was replaced with Na gluconate, and CaCl2 was increased to 2 mM. […] Chambers were bubbled continuously with air. For T84 cells and bronchial epithelial cells, cells were bathed in symmetrical HCO3—buffered solution containing (in mM): 120 NaCl, 5 KCl, 1 MgCl2, 1 CaCl2, 10 D-glucose, 5 HEPES, and 25 NaHCO3 (pH 7.4), and aerated with 5% CO2 at 37° C. For the measurement of apical K+ conductance in T84 cells, NaHCO3 and NaCl were replaced with Na gluconate, and Na gluconate in basolateral solution was replaced with K gluconate and bubbled with air. The basolateral membrane was permeabilized with 20 μM amphotericin B. Short-circuit current was measured using a DVC-1000 voltage-clamp apparatus (World Precision Instruments).

T1 sequence (P13569 whole entry): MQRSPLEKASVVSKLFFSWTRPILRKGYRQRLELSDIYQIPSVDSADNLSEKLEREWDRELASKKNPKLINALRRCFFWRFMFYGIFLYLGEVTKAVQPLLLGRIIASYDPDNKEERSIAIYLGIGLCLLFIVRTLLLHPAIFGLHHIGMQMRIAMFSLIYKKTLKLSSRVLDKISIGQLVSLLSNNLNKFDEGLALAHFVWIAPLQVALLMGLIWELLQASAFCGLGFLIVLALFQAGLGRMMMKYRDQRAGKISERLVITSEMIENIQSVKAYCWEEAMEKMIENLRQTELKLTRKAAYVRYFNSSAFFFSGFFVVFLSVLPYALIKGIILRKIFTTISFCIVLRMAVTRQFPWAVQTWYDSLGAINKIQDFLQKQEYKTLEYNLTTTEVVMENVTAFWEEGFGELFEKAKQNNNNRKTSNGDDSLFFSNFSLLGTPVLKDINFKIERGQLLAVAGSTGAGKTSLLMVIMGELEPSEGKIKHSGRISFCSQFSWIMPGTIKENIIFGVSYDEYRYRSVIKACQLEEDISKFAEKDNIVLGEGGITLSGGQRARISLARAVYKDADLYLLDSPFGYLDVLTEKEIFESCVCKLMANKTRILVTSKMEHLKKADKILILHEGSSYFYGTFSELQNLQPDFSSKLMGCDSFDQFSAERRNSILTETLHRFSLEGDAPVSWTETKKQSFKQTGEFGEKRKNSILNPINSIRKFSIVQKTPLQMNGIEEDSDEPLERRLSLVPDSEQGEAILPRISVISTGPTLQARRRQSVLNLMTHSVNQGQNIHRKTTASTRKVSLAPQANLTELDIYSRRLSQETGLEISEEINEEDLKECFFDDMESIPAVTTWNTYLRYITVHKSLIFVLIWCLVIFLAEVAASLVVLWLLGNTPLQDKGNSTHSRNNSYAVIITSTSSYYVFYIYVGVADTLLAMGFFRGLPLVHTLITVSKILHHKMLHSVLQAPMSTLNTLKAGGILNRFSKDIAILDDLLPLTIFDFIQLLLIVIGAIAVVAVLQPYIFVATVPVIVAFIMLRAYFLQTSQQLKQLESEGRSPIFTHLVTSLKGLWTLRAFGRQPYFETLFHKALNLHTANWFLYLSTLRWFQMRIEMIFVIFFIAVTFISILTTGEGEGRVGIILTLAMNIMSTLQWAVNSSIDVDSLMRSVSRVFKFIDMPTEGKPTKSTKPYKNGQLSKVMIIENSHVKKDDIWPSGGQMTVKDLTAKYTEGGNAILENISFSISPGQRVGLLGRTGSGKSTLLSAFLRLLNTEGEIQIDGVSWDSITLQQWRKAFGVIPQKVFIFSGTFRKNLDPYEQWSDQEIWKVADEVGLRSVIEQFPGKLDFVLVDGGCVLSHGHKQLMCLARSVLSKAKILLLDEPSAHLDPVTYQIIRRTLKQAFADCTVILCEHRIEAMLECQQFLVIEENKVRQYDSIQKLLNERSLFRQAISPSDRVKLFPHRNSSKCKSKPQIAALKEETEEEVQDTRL

Molecule	inhibition of CFTR after crofelemer pre-treatment [%]	IC50 in absence versus presence of crofelemer	pIC50 (CFTR activated by CPT-cAMP, basolateral membrane permeabilized, Cl− gradient, inhibitor in apical solution, read-out: apparent IC50 for inhibition of CFTR Cl− current)
CFTRinh-172	~100	similar	–
O=C(CNc1ccc2ccccc2c1)N/N=C/c1cc(Br)c(O)c(Br)c1O [GlyH-101]	~100	similar	~5.10
